The results in this text go back to patent publication US8575178B2, “Isothiazolo-pyrimidinedione derivatives as TRPA1 modulators” (Glenmark Pharmaceuticals S.A., priority 2009, dated 2013).

Structures are written as SMILES. Bounds are passed on as bounds.

For one experiment, the target named is T1, human TRPA1 (Homo sapiens, UniProt O75762).
T1 construct: expressed in transfected cells; host or cells: CHO cells (G-418 selection)
The experiment is described as follows: 45Calcium uptake assay, inhibition of AITC induced calcium uptake in human TRPA1 expressing CHO cells. In kind it is cell-based. To be noted: AITC 30 μM; for inhibition at 1 µM: 1.0 μM compound, read-out: human TRPA1 Percentage inhibition at 1.0 μM; for inhibition at 10 µM: 10.0 μM compound, read-out: human TRPA1 Percentage inhibition at 10.0 μM. The source says:
(§1) The illustrative examples of the present invention are screened for TRPA1 activity according to a modified procedure described in (a) Tóth, A. et al. Life Sciences, 2003, 73, 487-498. (b) McNamara C, R. et al, Proc. Natl. Acad. Sci. U.S.A., 2007, 104, 13525-13530. The screening of the compounds can be carried out by other methods and procedures known to persons skilled in the art.
(§2) Screening for TRPA1 Antagonist Using the ^45Calcium Uptake Assay:
(§3) The inhibition of TRPA1 receptor activation was measured as inhibition of allyl isothiocyanate (AITC) induced cellular uptake of radioactive calcium.
(§4) Test compounds were dissolved in 100% DMSO to prepare 10 mM stock and then diluted using plain medium with 0.1% BSA and 1.8 mM CaCl2 to get the desired concentration. The final concentration of DMSO in the reaction was 0.5% (v/v). Human TRPA1 expressing CHO cells were grown in F-12 DMEM medium with 10% FBS, 1% penicillin-streptomycin solution, and 400 μg/ml of G-418. Rat TRPA1 expressing CHO cells were grown in F-12 DMEM medium with 10% FBS, 1% penicillin-streptomycin solution, and 400 μg/ml of Zeocin. Cells were seeded 24 h prior to the assay in 96 well plates so as to get ˜50,000 cells per well on the day of experiment. Cells were treated with the test compounds for 10 minutes followed by the addition of AITC at a final concentration of 30 μM (for human TRPA1) and/or 10 μM (for rat TRPA1) and 5 μCi/ml ^45Ca^+2 for 3 minutes. Cells were washed and lysed using a buffer containing 1% Triton X-100, 0.1% deoxycholate and 0.1% SDS. Radioactivity in the lysate was measured in a Packard TopCount after addition of liquid scintillant. (Toth et al, Life Sciences (2003) 73, 487-498; McNamara C R et al, Proceedings of the National Academy of Sciences, (2007) 104, 13525-13530).
(§5) Concentration response curves were plotted as a % of maximal response obtained in the absence of test antagonist. IC50 values can be calculated from concentration response curve by nonlinear regression analysis using GraphPad PRISM software.

The next experiment concerns the target T2, rat TRPA1 (Rattus norvegicus, UniProt Q6RI86).
T2 construct: expressed in transfected cells; host or cells: CHO cells (Zeocin selection)
The experiment is described as follows: 45Calcium uptake assay, inhibition of AITC induced calcium uptake in rat TRPA1 expressing CHO cells. Type of experiment: cell-based. To be noted: AITC 10 μM; for inhibition at 1 µM: 1.0 μM compound, read-out: rat TRPA1 Percentage inhibition at 1.0 μM; for inhibition at 10 µM: 10.0 μM compound, read-out: rat TRPA1 Percentage inhibition at 10.0 μM.
Description: as §1, §2, §3, §4, §5

T1 sequence (O75762 whole entry): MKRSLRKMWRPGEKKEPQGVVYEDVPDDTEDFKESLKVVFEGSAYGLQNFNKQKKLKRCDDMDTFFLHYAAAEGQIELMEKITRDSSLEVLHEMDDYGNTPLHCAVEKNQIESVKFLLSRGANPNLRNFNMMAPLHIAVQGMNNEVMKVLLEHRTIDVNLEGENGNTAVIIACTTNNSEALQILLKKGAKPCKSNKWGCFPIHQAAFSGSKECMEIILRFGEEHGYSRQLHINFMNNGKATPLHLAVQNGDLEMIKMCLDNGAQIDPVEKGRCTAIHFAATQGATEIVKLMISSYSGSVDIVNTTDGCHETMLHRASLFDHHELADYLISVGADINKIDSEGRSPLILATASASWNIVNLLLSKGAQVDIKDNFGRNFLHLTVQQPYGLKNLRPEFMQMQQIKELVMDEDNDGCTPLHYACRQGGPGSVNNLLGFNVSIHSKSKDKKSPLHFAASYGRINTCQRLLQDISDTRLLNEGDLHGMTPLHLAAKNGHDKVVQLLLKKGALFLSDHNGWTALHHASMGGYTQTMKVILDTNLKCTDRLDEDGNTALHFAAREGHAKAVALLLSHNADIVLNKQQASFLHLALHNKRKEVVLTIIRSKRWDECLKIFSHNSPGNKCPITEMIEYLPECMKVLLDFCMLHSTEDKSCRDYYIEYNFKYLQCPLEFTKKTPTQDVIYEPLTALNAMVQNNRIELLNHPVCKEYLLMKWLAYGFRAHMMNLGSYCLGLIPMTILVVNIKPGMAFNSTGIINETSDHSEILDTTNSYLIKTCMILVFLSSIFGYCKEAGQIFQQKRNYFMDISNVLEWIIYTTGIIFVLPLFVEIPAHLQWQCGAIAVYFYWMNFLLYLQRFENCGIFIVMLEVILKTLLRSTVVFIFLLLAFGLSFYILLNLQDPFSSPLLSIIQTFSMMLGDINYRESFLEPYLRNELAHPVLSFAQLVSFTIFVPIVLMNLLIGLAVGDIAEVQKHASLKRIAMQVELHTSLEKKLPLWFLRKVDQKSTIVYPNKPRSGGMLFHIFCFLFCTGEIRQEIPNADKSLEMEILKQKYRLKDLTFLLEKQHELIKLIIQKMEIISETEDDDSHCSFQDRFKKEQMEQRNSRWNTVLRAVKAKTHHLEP
T2 sequence (Q6RI86 whole entry): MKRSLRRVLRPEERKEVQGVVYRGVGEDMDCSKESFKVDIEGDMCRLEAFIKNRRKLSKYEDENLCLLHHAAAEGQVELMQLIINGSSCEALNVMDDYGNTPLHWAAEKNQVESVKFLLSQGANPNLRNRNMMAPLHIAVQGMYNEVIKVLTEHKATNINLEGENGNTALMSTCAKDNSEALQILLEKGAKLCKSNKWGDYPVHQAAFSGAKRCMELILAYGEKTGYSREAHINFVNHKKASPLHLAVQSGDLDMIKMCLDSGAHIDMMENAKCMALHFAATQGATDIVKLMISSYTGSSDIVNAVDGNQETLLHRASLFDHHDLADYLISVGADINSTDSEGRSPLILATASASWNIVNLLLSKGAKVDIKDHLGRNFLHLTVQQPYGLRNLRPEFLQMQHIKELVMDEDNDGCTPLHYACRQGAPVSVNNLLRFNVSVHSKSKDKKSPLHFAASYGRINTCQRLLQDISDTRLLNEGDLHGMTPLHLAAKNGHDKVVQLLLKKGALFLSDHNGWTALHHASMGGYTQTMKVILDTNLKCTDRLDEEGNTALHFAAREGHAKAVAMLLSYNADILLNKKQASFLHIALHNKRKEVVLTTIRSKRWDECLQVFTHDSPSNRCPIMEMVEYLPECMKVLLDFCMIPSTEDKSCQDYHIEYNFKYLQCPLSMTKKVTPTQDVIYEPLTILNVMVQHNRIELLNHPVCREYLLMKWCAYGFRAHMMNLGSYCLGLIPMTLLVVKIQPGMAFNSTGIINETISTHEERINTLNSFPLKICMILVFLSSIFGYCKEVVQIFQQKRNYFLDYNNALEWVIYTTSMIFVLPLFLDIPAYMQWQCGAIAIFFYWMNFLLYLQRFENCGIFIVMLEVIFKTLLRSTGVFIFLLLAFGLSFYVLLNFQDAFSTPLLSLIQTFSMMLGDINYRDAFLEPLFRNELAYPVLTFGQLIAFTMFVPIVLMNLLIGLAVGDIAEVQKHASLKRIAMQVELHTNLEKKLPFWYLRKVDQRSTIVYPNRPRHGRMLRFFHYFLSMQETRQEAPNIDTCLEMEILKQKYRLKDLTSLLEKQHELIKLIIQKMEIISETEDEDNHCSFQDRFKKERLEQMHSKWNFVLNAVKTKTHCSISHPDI

One may read the inhibition as the drop in the measured response relative to a control, in per cent. In general, IC50 refers to the concentration that gives 50% inhibition. As to `Cn1c(=O)c2c(CC(=O)Nc3nc(-c4cccc(C(F)(F)F)c4)cs3)snc2n(C)c1=O` [Example 1, 2-(5,7-Dimethyl-4,6-dioxo-4,5,6,7-tetrahydro[1,2]thiazolo[3,4-d]pyrimidin-3-yl)-N-{4-[3-(trifluoromethyl)phenyl]-1,3-thiazol-2-yl}acetamide], on human TRPA1, the inhibition at 1 µM was found to be 95.2%, the inhibition at 10 µM came out at 100% and the concentration for half-maximal inhibition (IC50) is less than 0.05 µM. Further, on rat TRPA1, the inhibition at 1 µM worked out at 71.3%, the inhibition at 10 µM was 100% and the IC50 is greater than 0.1 µM.

As to `Cn1c(=O)c2c(CC(=O)Nc3nc(-c4ccc(Cl)cc4)cs3)snc2n(C)c1=O` [Example 2, N-[4-(4-Chlorophenyl)-1,3-thiazol-2-yl]-2-(5,7-dimethyl-4,6-dioxo-4,5,6,7-tetrahydro[1,2]thiazolo[3,4-d]pyrimidin-3-yl)acetamide], at human TRPA1, the inhibition at 1 µM was 99.7%, the inhibition at 10 µM was found to be 100% and the half-maximal inhibitory concentration (IC50) was less than 0.05 µM. In addition, on rat TRPA1, the inhibition at 1 µM came out at 34.9% and the inhibition at 10 µM was 43.8%.

Take `Cn1c(=O)c2c(CC(=O)Nc3nc(-c4ccc(F)c(OC(F)(F)F)c4)cs3)snc2n(C)c1=O` [Example 3, 2-(5,7-Dimethyl-4,6-dioxo-4,5,6,7-tetrahydro[1,2]thiazolo[3,4-d]pyrimidin-3-yl)-N-{4-[4-fluoro-3-(trifluoromethoxy)phenyl]-1,3-thiazol-2-yl}acetamide]: at human TRPA1, the inhibition at 1 µM is 95.5%, the inhibition at 10 µM was 99.5% and the IC50 is less than 0.05 µM. Also, at rat TRPA1, the inhibition at 1 µM turned out to be 68.5%, the inhibition at 10 µM stood at 98.3% and the IC50 is greater than 0.1 µM.

Turning to `Cn1c(=O)c2c(CC(=O)Nc3nc(-c4ccc(C(F)(F)F)c(F)c4)cs3)snc2n(C)c1=O` [Example 4, 2-(5,7-Dimethyl-4,6-dioxo-4,5,6,7-tetrahydro[1,2]thiazolo[3,4-d]pyrimidin-3-yl)-N-{4-[3-fluoro-4-(trifluoromethyl)phenyl]-1,3-thiazol-2-yl}acetamide], at human TRPA1, the inhibition at 1 µM amounted to 99.8%, the inhibition at 10 µM amounted to 100% and the half-maximal inhibitory concentration (IC50) is less than 0.05 µM. For the same compound, on rat TRPA1, the inhibition at 1 µM amounted to 72.2% and the inhibition at 10 µM came to 100%.

As for `Cn1c(=O)c2c(CC(=O)Nc3nc(-c4cccc(C(F)(F)F)c4F)cs3)snc2n(C)c1=O` [Example 5, 2-(5,7-Dimethyl-4,6-dioxo-4,5,6,7-tetrahydro[1,2]thiazolo[3,4-d]pyrimidin-3-yl)-N-{4-[2-fluoro-3-(trifluoromethyl)phenyl]-1,3-thiazol-2-yl}acetamide], at human TRPA1, the inhibition at 1 µM was found to be 98.1%, the inhibition at 10 µM is 99.1% and the IC50 was less than 0.05 µM. Besides, on rat TRPA1, the inhibition at 1 µM is 95.6% and the inhibition at 10 µM was determined as 98.5%.

For `Cn1c(=O)c2c(CC(=O)Nc3nc(-c4ccc(Cl)c(C(F)(F)F)c4)cs3)snc2n(C)c1=O` [Example 6, 2-(5,7-Dimethyl-4,6-dioxo-4,5,6,7-tetrahydro[1,2]thiazolo[3,4-c]pyrimidin-3-yl)-N-{4-[4-chloro-3-(trifluoromethyl)phenyl]-1,3-thiazol-2-yl}acetamide], on human TRPA1, the inhibition at 1 µM worked out at 99.3%, the inhibition at 10 µM came to 99.6% and the 50% inhibitory concentration (IC50) was less than 0.05 µM. In addition, on rat TRPA1, the inhibition at 1 µM turned out to be 97.3%, the inhibition at 10 µM stood at 99.3% and the 50% inhibitory concentration (IC50) was greater than 0.1 µM.

Turning to `Cn1c(=O)c2c(CC(=O)Nc3nc(-c4ccc(OC(F)(F)F)c(F)c4)cs3)snc2n(C)c1=O` [Example 7, 2-(5,7-Dimethyl-4,6-dioxo-4,5,6,7-tetrahydro[1,2]thiazolo[3,4-c]pyrimidin-3-yl)-N-{4-[3-fluoro-4-(trifluoromethoxy)phenyl]-1,3-thiazol-2-yl}acetamide], on human TRPA1, the inhibition at 1 µM is 100%, the inhibition at 10 µM was 99.5% and the IC50 was less than 0.05 µM. For the same compound, on rat TRPA1, the inhibition at 1 µM was 79.4%, the inhibition at 10 µM was 100% and the 50% inhibitory concentration (IC50) was greater than 0.1 µM.

Consider `Cn1c(=O)c2c(CC(=O)Nc3nc(-c4ccc(F)c(C(F)(F)F)c4F)cs3)snc2n(C)c1=O` [Example 9, N-{4-[2,4-Difluoro-3-(trifluoromethyl)phenyl]-1,3-thiazol-2-yl}-2-(5,7-dimethyl-4,6-dioxo-4,5,6,7-tetrahydro[1,2]thiazolo[3,4-d]pyrimidin-3-yl)acetamide], for which, on human TRPA1, the inhibition at 1 µM was determined as 98.4%, the inhibition at 10 µM worked out at 98.1% and the IC50 was less than 0.05 µM. Besides, on rat TRPA1, the inhibition at 1 µM was 94.7% and the inhibition at 10 µM turned out to be 94.1%.

With `Cn1c(=O)c2c(CC(=O)Nc3nc(-c4cc(F)c(C(F)(F)F)c(F)c4)cs3)snc2n(C)c1=O` [Example 10, N-{4-[3,5-Difluoro-4-(trifluoromethyl)phenyl]-1,3-thiazol-2-yl}-2-(5,7-dimethyl-4,6-dioxo-4,5,6,7-tetrahydro[1,2]thiazolo[3,4-d]pyrimidin-3-yl)acetamide], the inhibition at 1 µM at human TRPA1 amounted to 99.9%; on rat TRPA1, 35.2%. In addition, the inhibition at 10 µM at human TRPA1 came to 100%; on rat TRPA1, 68.4%.

Consider `Cn1c(=O)c2c(CC(=O)Nc3ccn(-c4ccc(Br)cc4)n3)snc2n(C)c1=O` [Example 11, N-[1-(4-Bromophenyl)-1H-pyrazol-3-yl]-2-(5,7-dimethyl-4,6-dioxo-4,5,6,7-tetrahydro[1,2]thiazolo[3,4-d]pyrimidin-3-yl)acetamide], for which, at human TRPA1, the inhibition at 1 µM is 100%, the inhibition at 10 µM is 100% and the half-maximal inhibitory concentration (IC50) is less than 0.05 µM. Moreover, on rat TRPA1, the inhibition at 1 µM turned out to be 22.9% and the inhibition at 10 µM was 39.7%.

In the case of `Cn1c(=O)c2c(CC(=O)Nc3nc(-c4ccc(Cl)cc4)cs3)nsc2n(C)c1=O` [Example 12, N-[4-(4-Chlorophenyl)-1,3-thiazol-2-yl]-2-(5,7-dimethyl-4,6-dioxo-4,5,6,7-tetrahydro[1,2]thiazolo[5,4-d]pyrimidin-3-yl)acetamide], at human TRPA1, the inhibition at 1 µM worked out at 98.4%, the inhibition at 10 µM came to 99.2% and the IC50 was less than 0.05 µM. Moreover, at rat TRPA1, the inhibition at 1 µM came out at 94.6%, the inhibition at 10 µM came to 99.5% and the IC50 is greater than 0.1 µM.

As to `Cn1c(=O)c2c(CC(=O)Nc3nc(-c4cccc(C(F)(F)F)c4)cs3)nsc2n(C)c1=O` [Example 13, 2-(5,7-Dimethyl-4,6-dioxo-4,5,6,7-tetrahydro[1,2]thiazolo[5,4-d]pyrimidin-3-yl)-N-{4-[3-(trifluoromethyl)phenyl]-1,3-thiazol-2-yl}acetamide], at human TRPA1, the inhibition at 1 µM stood at 99.7%, the inhibition at 10 µM is 99.8% and the IC50 is less than 0.05 µM. Besides, on rat TRPA1, the inhibition at 1 µM was determined as 99.3% and the inhibition at 10 µM was 99.3%.

In the case of `Cn1c(=O)c2c(CC(=O)Nc3nc(-c4ccc(C(F)(F)F)c(F)c4)cs3)nsc2n(C)c1=O` [Example 19, 2-(5,7-Dimethyl-4,6-dioxo-4,5,6,7-tetrahydro[1,2]thiazolo[5,4-d]pyrimidin-3-yl)-N-{4-[3-fluoro-4-(trifluoromethyl)phenyl]-1,3-thiazol-2-yl}acetamide], on human TRPA1, the inhibition at 1 µM was found to be 99.7%, the inhibition at 10 µM is 100% and the half-inhibitory concentration (IC50) was less than 0.05 µM. Also, on rat TRPA1, the inhibition at 1 µM came to 99.5%, the inhibition at 10 µM came out at 99.3% and the IC50 was less than 0.05 µM.

On to `Cn1c(=O)c2c(CC(=O)Nc3nc(-c4ccc(F)c(C(F)(F)F)c4)cs3)nsc2n(C)c1=O` [Example 20, 2-(5,7-Dimethyl-4,6-dioxo-4,5,6,7-tetrahydro[1,2]thiazolo[5,4-d]pyrimidin-3-yl)-N-{4-[4-fluoro-3-(trifluoromethyl)phenyl]-1,3-thiazol-2-yl}acetamide], for which, on human TRPA1, the inhibition at 1 µM came out at 99.6%, the inhibition at 10 µM was determined as 99.8% and the half-inhibitory concentration (IC50) was less than 0.05 µM. In addition, on rat TRPA1, the inhibition at 1 µM was determined as 99.7%, the inhibition at 10 µM is 100% and the IC50 was less than 0.05 µM.
